Reference: publication PMC11077991, “The small molecule CBR-5884 inhibits the Candida albicans phosphatidylserine synthase” (mBio, 2024)

How the values were obtained:
[1] = system: wild-type C. albicans cell wall β(1-3)-glucan exposure; test: fluorescence imaging of unmasked β(1-3)-glucan; type: cell-based, Candida albicans; conditions: 170 µM, YPD
Experimental: Wild-type and cho1ΔΔ cells were grown in YPD overnight (~16 h), and back diluted to fresh YPD with OD600 of ~0.1. The cells were then shaken at 225 rpm for 3 h before 170 µM CBR-5884 or equivalent DMSO were added. The cells were further shaken for 30, 60, 120 min before staining with anti-β(1-3)-glucan antibody. The cells were stained as previously described ([57], [97]) with the exception that goat anti-mouse antibody conjugated to Alexa Fluor 488 (Jackson ImmunoResearch) was used as the secondary antibody. For imaging, Candida cells were resuspended in 200 µL of Fluoromount-G mounting medium and visualized with a Leica SP8 white light laser confocal microscope. The pictures were taken through Leica Application Suite X office software and quantified as described above.

[2] = precipitation in MIC media; type: physicochemical
[3] = type: physicochemical; conditions: 12 h, 170 µM
Experimental: However, it was observed that the impact of CBR-5884 on cell growth was only temporary, with a delay lasting 12 h. […] To disentangle these two possibilities, experiments were conducted where both CBR-5884 and DMSO were subjected to 12 h of agitation at 30°C before being introduced to live cells. The growth of these cells was monitored over the next 14 h, with an OD600 measurement every 2 h, to assess the persistence of CBR-5884’s efficacy (Fig. 4F); in the meantime, cells that had been grown in 170 µM CBR-5884 for 12 and 24 h were transferred into fresh media containing new CBR-5884, which was allowed to grow for another 14 h, to probe the rising of resistance (Fig. 4G). In both experimental setups, cells grew slowly in the presence of CBR-5884 compound compared to DMSO control.
The growth curves with LOC14 and CBR-5884 treatments were measured from 2 to 30 h with OD600 measurements every 2 h. A final concentration of 170 µM CBR-5884, 430 µM LOC14, and 5 mM serine was added into each group as indicated. To test the stability of CBR-5884, minimal medium supplemented with 170 µM CBR-5884 or equivalent DMSO was agitated for 12 h before the introduction of wildtype C. albicans SC5314 strain, and growth curves were recorded from 0 to 14 h with OD600 measurement every 2 h. […] The growth curves were recorded from 0 to 14 h with OD600 measurement every 2 h. […]

[4] = system: cancer cell lines with high serine biosynthetic activity (melanoma and breast cancer lines); design: method as in PMID 26831078; conditions: cited from earlier work
C57BL/6 j mice = system: C57BL/6 j mice; design: method as in PMID 25848045; conditions: high dose of 20 mg/kg; cited from earlier work

SMILES	β(1-3)-glucan unmasking vs wild-type in DMSO ([1]; 30-min treatment)	β(1-3)-glucan unmasking vs cho1ΔΔ mutant ([1]; 120-min treatment)	solubility in MIC media [2]	stability and effectiveness under agitation [3]	toxicity to cancer cell lines [4]	tolerability (C57BL/6 j mice)
CCOC(=O)c1sc(NC(=O)c2ccco2)c(SC#N)c1C [CBR-5884]	significantly increased unmasking	more unmasking than the cho1ΔΔ mutant	precipitated at high concentrations	at least 12 h	selectively toxic	–
O=C(C1CC1)N1CCN(Cn2sc3ccccc3c2=O)CC1 [LOC14]	–	–	–	–	–	well tolerated
